# Assay results as given in PubChem BioAssay AID1259407 (Chemical Carcinogenesis Research Information System (CCRIS), 2018).
# Activity calls are given as the source filed them. The rule behind the calls is not given here.
# Tested on: CCRIS mutagenicity, Ames/micronucleus/aberration tests
# Experiment: CCRIS mutagenicity studies
# [1] = Test System: AMES SALMONELLA TYPHIMURIUM, Strain/Indicator: TA98, Metabolic Activation: NONE, Method: PREINCUBATION
# [2] = Test System: AMES SALMONELLA TYPHIMURIUM, Strain/Indicator: TA100, Metabolic Activation: NONE, Method: PREINCUBATION
# [3] = Test System: AMES SALMONELLA TYPHIMURIUM, Strain/Indicator: TA1535, Metabolic Activation: NONE, Method: PREINCUBATION
# [4] = Test System: AMES SALMONELLA TYPHIMURIUM, Strain/Indicator: TA100, Metabolic Activation: RAT, LIVER, S-9, AROCLOR 1254, Method: PREINCUBATION
# [5] = Test System: AMES SALMONELLA TYPHIMURIUM, Strain/Indicator: TA1537, Metabolic Activation: NONE, Method: PREINCUBATION
smiles,measurement,setting,value
C=Cc1ccccc1Cl,mutagenic call,"Test System: AMES SALMONELLA TYPHIMURIUM, Strain/Indicator: TA97, Metabolic Activation: HAMSTER, LIVER, S-9, AROCLOR 1254 (10 OR 30%), Method: PREINCUBATION",inactive; negative
same,mutagenic call,"Test System: AMES SALMONELLA TYPHIMURIUM, Strain/Indicator: TA97, Metabolic Activation: NONE, Method: PREINCUBATION",inactive; negative
same,mutagenic call,"Test System: AMES SALMONELLA TYPHIMURIUM, Strain/Indicator: TA97, Metabolic Activation: RAT, LIVER, S-9, AROCLOR 1254 (10 OR 30%), Method: PREINCUBATION",inactive; negative
same,mutagenic call,"Test System: AMES SALMONELLA TYPHIMURIUM, Strain/Indicator: TA98, Metabolic Activation: HAMSTER, LIVER, S-9, AROCLOR 1254 (10 OR 30%), Method: PREINCUBATION",inactive; negative
same,mutagenic call,[1],inactive; negative
same,mutagenic call,"Test System: AMES SALMONELLA TYPHIMURIUM, Strain/Indicator: TA98, Metabolic Activation: RAT, LIVER, S-9, AROCLOR 1254 (10 OR 30%), Method: PREINCUBATION",inactive; negative
same,mutagenic call,"Test System: AMES SALMONELLA TYPHIMURIUM, Strain/Indicator: TA100, Metabolic Activation: HAMSTER, LIVER, S-9, AROCLOR 1254 (10 OR 30%), Method: PREINCUBATION",inactive; negative
same,mutagenic call,[2],inactive; negative
same,mutagenic call,"Test System: AMES SALMONELLA TYPHIMURIUM, Strain/Indicator: TA100, Metabolic Activation: RAT, LIVER, S-9, AROCLOR 1254 (10 OR 30%), Method: PREINCUBATION",inactive; negative
same,mutagenic call,"Test System: AMES SALMONELLA TYPHIMURIUM, Strain/Indicator: TA1535, Metabolic Activation: HAMSTER, LIVER, S-9, AROCLOR 1254 (10 OR 30%), Method: PREINCUBATION",inactive; negative
same,mutagenic call,[3],inactive; negative
same,mutagenic call,"Test System: AMES SALMONELLA TYPHIMURIUM, Strain/Indicator: TA1535, Metabolic Activation: RAT, LIVER, S-9, AROCLOR 1254 (10 OR 30%), Method: PREINCUBATION",inactive; negative
Oc1cc(Cl)ccc1Cl,mutagenic call,"Test System: AMES SALMONELLA TYPHIMURIUM, Strain/Indicator: TA98, Metabolic Activation: HAMSTER, LIVER, S-9, AROCLOR 1254, Method: PREINCUBATION",inactive; negative
same,mutagenic call,[1],inactive; negative
same,mutagenic call,"Test System: AMES SALMONELLA TYPHIMURIUM, Strain/Indicator: TA98, Metabolic Activation: RAT, LIVER, S-9, AROCLOR 1254, Method: PREINCUBATION",inactive; negative
same,mutagenic call,"Test System: AMES SALMONELLA TYPHIMURIUM, Strain/Indicator: TA100, Metabolic Activation: HAMSTER, LIVER, S-9, AROCLOR 1254, Method: PREINCUBATION",inactive; negative
same,mutagenic call,[2],inactive; negative
same,mutagenic call,[4],inactive; negative
same,mutagenic call,"Test System: AMES SALMONELLA TYPHIMURIUM, Strain/Indicator: TA1535, Metabolic Activation: HAMSTER, LIVER, S-9, AROCLOR 1254, Method: PREINCUBATION",inactive; negative
same,mutagenic call,[3],inactive; negative
same,mutagenic call,"Test System: AMES SALMONELLA TYPHIMURIUM, Strain/Indicator: TA1535, Metabolic Activation: RAT, LIVER, S-9, AROCLOR 1254, Method: PREINCUBATION",inactive; negative
same,mutagenic call,"Test System: AMES SALMONELLA TYPHIMURIUM, Strain/Indicator: TA1537, Metabolic Activation: HAMSTER, LIVER, S-9, AROCLOR 1254, Method: PREINCUBATION",inactive; negative
same,mutagenic call,[5],inactive; negative
same,mutagenic call,"Test System: AMES SALMONELLA TYPHIMURIUM, Strain/Indicator: TA1537, Metabolic Activation: RAT, LIVER, S-9, AROCLOR 1254, Method: PREINCUBATION",inactive; negative
same,mutagenic call,"Test System: CHINESE HAMSTER OVARY CELLS, Strain/Indicator: CHO-K1-BH4 (HPRT)/6-THIOGUANINE, Metabolic Activation: NONE, Method: PREINCUBATION",inactive; negative
same,mutagenic call,"Test System: CHINESE HAMSTER OVARY CELLS, Strain/Indicator: CHO-K1-BH4 (HPRT)/6-THIOGUANINE, Metabolic Activation: S-9, Method: PREINCUBATION",inactive; negative
Cc1cc2ccccc2c2cc3ccccc3cc12,mutagenic call,"Test System: AMES SALMONELLA TYPHIMURIUM, Strain/Indicator: TA100, Metabolic Activation: RAT, INTACT HEPATOCYTES, AROCLOR 1254, Method: PREINCUBATION",active; positive
same,mutagenic call,[4],active; positive
same,mutagenic call,"Test System: AMES SALMONELLA TYPHIMURIUM, Strain/Indicator: TA100, Metabolic Activation: RAT, NADPH-FORTIFIED HOMOGENIZED HEPATOCYTES, AROCLOR 1254, Method: PREINCUBATION",active; positive
same,mutagenic call,"Test System: AMES SALMONELLA TYPHIMURIUM, Strain/Indicator: TA100, Metabolic Activation: RAT, SONICATED HEPATOCYTES, AROCLOR 1254, Method: PREINCUBATION",active; positive
O=C1CCCc2cc3c(cc21)c([N+](=O)[O-])cc1ccccc13,mutagenic call,"Test System: AMES SALMONELLA TYPHIMURIUM, Strain/Indicator: TA98-1,8-DNP6, Metabolic Activation: NONE",inactive; negative
same,mutagenic call,"Test System: AMES SALMONELLA TYPHIMURIUM, Strain/Indicator: TA98-1,8-DNP6, Metabolic Activation: S-9",inactive; negative
same,mutagenic call,"Test System: AMES SALMONELLA TYPHIMURIUM, Strain/Indicator: TA98, Metabolic Activation: NONE",active; positive
same,mutagenic call,"Test System: AMES SALMONELLA TYPHIMURIUM, Strain/Indicator: TA98, Metabolic Activation: S-9",active; positive
same,mutagenic call,"Test System: AMES SALMONELLA TYPHIMURIUM, Strain/Indicator: TA98NR, Metabolic Activation: NONE",inactive; negative
same,mutagenic call,"Test System: AMES SALMONELLA TYPHIMURIUM, Strain/Indicator: TA98NR, Metabolic Activation: S-9",inactive; negative
same,mutagenic call,"Test System: AMES SALMONELLA TYPHIMURIUM, Strain/Indicator: TA100, Metabolic Activation: NONE",active; positive
same,mutagenic call,"Test System: AMES SALMONELLA TYPHIMURIUM, Strain/Indicator: TA100, Metabolic Activation: S-9",active; positive
same,mutagenic call,"Test System: AMES SALMONELLA TYPHIMURIUM, Strain/Indicator: TA100NR, Metabolic Activation: NONE",active; positive
same,mutagenic call,"Test System: AMES SALMONELLA TYPHIMURIUM, Strain/Indicator: TA100NR, Metabolic Activation: S-9",active; positive
O=C(O)c1ccccc1-c1c2ccc(=O)cc-2oc2cc(O)ccc12,mutagenic call,"End Point: IN VITRO CHROMOSOMAL ABERRATIONS, Test System: CHO-LB CELLS, Metabolic Activation: NONE",inactive; negative
same,mutagenic call,"End Point: IN VITRO CHROMOSOMAL ABERRATIONS, Test System: CHO-LB CELLS, Metabolic Activation: RAT, LIVER, S-9, AROCLOR 1254",inactive; negative
same,mutagenic call,"Test System: AMES SALMONELLA TYPHIMURIUM, Strain/Indicator: TA98, Metabolic Activation: HAMSTER, LIVER, S-9, AROCLOR 1254 (10%), Method: PREINCUBATION",inactive; negative
same,mutagenic call,[1],inactive; negative
same,mutagenic call,"Test System: AMES SALMONELLA TYPHIMURIUM, Strain/Indicator: TA98, Metabolic Activation: RAT, LIVER, S-9, AROCLOR 1254 (10%), Method: PREINCUBATION",inactive; negative
same,mutagenic call,"Test System: AMES SALMONELLA TYPHIMURIUM, Strain/Indicator: TA100, Metabolic Activation: HAMSTER, LIVER, S-9, AROCLOR 1254 (10%), Method: PREINCUBATION",inactive; negative
same,mutagenic call,[2],inactive; negative
same,mutagenic call,"Test System: AMES SALMONELLA TYPHIMURIUM, Strain/Indicator: TA100, Metabolic Activation: RAT, LIVER, S-9, AROCLOR 1254 (10%), Method: PREINCUBATION",inactive; negative
same,mutagenic call,"Test System: AMES SALMONELLA TYPHIMURIUM, Strain/Indicator: TA1535, Metabolic Activation: HAMSTER, LIVER, S-9, AROCLOR 1254 (10%), Method: PREINCUBATION",inactive; negative
same,mutagenic call,[3],inactive; negative
same,mutagenic call,"Test System: AMES SALMONELLA TYPHIMURIUM, Strain/Indicator: TA1535, Metabolic Activation: RAT, LIVER, S-9, AROCLOR 1254 (10%), Method: PREINCUBATION",inactive; negative
same,mutagenic call,"Test System: AMES SALMONELLA TYPHIMURIUM, Strain/Indicator: TA1537, Metabolic Activation: HAMSTER, LIVER, S-9, AROCLOR 1254 (10%), Method: PREINCUBATION",inactive; negative
same,mutagenic call,[5],inactive; negative
same,mutagenic call,"Test System: AMES SALMONELLA TYPHIMURIUM, Strain/Indicator: TA1537, Metabolic Activation: RAT, LIVER, S-9, AROCLOR 1254 (10%), Method: PREINCUBATION",inactive; negative
COC(=O)c1cc2ccc3ccc[n+](C)c3c2[nH]1,mutagenic call,"Test System: AMES SALMONELLA TYPHIMURIUM, Strain/Indicator: TA98, Metabolic Activation: NONE, Method: STANDARD PLATE",inactive; negative
same,mutagenic call,"Test System: E. COLI, Strain/Indicator: WP2 TM9, Metabolic Activation: NONE, Method: STANDARD PLATE",inactive; negative
